Results reported in patent US20150352108A1, “AMINO-PYRIMIDINE COMPOUNDS AS INHIBITORS OF TBK1 AND/OR IKK EPSILON” (Alzheimer's Institute of America, priority 2009, published 2015).
Where two headings read alike, the source gives them in different places.

Experiments:
IKKε = molecular target: T1, IKKε (Homo sapiens, UniProt Q14164); experiment: In-vitro IKKε kinase assay ([γ33]ATP filter-plate); format: biochemical
T1 construct: His-tag; made in house; host or cells: Sf9 insect cells
T1 sequence (Q14164 1-716): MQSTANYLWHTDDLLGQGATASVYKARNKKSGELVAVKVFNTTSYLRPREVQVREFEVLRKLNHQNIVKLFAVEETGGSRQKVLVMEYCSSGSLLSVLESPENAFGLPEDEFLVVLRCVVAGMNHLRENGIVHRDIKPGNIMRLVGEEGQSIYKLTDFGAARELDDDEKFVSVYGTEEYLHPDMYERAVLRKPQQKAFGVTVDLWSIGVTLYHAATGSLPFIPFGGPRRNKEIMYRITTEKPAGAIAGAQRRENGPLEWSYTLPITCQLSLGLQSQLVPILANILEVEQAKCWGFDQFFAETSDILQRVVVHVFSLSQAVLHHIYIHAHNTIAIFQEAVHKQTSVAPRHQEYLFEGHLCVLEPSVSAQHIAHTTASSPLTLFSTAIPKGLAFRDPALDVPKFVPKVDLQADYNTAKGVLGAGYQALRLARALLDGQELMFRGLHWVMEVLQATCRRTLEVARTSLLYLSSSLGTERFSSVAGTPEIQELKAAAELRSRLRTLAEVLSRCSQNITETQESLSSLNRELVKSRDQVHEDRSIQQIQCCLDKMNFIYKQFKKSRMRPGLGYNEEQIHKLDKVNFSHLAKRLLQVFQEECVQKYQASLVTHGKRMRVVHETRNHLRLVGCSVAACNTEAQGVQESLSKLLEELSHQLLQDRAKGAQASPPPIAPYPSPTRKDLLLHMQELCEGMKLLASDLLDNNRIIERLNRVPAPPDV
In short: (§1)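 Phosphorylation of casein or myelin basic protein was counted by P-81 filter capture after 30-45 min reactions stopped with phosphoric acid, with counts normalized to DMSO after background subtraction. ATP was twice Km: 60 μM for TBK1 and 32 μM for IKKε, plus [γ33]ATP. Sf9-expressed His-tag enzymes were used at normal/sensitized levels of 0.1/0.02 μg/ml (TBK1) and 0.1/0.015 μg/ml (IKKε).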

TBK1 = molecular target: T2, TBK1 (Homo sapiens, UniProt Q9UHD2); experiment: In-vitro TBK1 kinase assay ([γ33]ATP filter-plate); format: biochemical
T2 construct: His-tag; made in house; host or cells: Sf9 insect cells
T2 sequence (Q9UHD2 1-729): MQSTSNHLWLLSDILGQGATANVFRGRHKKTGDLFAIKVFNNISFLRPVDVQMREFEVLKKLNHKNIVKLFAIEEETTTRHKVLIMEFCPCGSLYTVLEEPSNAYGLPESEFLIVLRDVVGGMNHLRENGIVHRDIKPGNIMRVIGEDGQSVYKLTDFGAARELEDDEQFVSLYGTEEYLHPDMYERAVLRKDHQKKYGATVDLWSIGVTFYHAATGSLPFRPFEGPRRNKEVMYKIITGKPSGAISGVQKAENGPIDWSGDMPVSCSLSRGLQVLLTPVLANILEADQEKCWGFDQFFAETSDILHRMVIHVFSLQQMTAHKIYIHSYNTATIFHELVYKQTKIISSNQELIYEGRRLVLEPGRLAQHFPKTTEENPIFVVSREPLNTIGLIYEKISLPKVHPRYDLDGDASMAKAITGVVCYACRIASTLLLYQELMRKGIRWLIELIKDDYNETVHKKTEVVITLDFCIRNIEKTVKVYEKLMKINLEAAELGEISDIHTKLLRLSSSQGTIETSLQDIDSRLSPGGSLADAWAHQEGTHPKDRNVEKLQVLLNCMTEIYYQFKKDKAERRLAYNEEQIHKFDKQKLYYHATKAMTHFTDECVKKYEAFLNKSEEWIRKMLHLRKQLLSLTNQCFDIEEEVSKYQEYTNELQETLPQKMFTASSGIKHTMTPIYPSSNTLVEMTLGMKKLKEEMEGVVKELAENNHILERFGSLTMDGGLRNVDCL
In short: as §1

[1] = tested on: IKKε-mediated phosphorylation of IRF3; experiment: In-situ phosphorylation of IRF3 (pIRF3 Ser396 ELISA) in HEK293T cells cotransfected with IRF3 and IKKε; format: cell-based; details: Homo sapiens, HEK-293T
In short: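 For the IRF3 ELISA, HEK293T cells cotransfected with IRF3 and IKKε were replated at 20,000/well and treated 20 h. Phospho-Ser396 IRF3 was measured by ELISA and normalised to DMSO, with viability checked by CellTiter-Glo. For IRF7, cells transfected with IRF7 and TBK1 were treated overnight, and pSer477/Ser479 IRF7 was detected by Western blot.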

[2] = text bins, read-out: IC50 for inhibition of the kinase activity of IKKε
[3] = text bins, read-out: IC50 for inhibition of the kinase activity of TBK1
[4] = HEK293T cells, 20 hours, text bins, read-out: IC50 for inhibition of the in-situ IKKε-mediated phosphorylation of IRF3
[5] = HEK293T cells in culture, Table 3, read-out: pIRF3 ELISA IC50

SMILES	IC50 (IKKε; [2])	IC50 (TBK1; [3])	IC50 [1, 4]	IC50 (IKKε; Table 3, read-out: IKKε IC50)	IC50 (TBK1; Table 3, read-out: TBK1 IC50)	IC50 [1, 5]
N#Cc1cc(-c2ccnc(Nc3ccc(N4CCOCC4)cc3)n2)ccc1OC1CCN(S(N)(=O)=O)C1 (stereo not drawn) [Example 225, 3-[2-cyano-4-(2-{[4-(morpholin-4-yl)phenyl]amino}pyrimidin-4-yl)phenoxy]pyrrolidine-1-sulfonamide]	< 5 nM	< 10 nM	100 to 250 nM	–	–	–
COc1cc(Nc2nccc(-c3ccc(OC4CCOCC4)c(C#N)c3)n2)ccc1S(=O)(=O)NCCCn1ccnc1 [Example 83, 4-({4-[3-cyano-4-(tetrahydro-2H-pyran-4-yloxy)phenyl]pyrimidin-2-yl}amino)-N-[3-(1H-imidazol-1-yl)propyl]-2-methoxybenzene-sulfonamide]	< 5 nM	< 10 nM	100 to 250 nM	–	–	–
N#Cc1cc(-c2ccnc(Nc3ccc(Cn4ccnc4)cc3)n2)ccc1OC1CCOCC1 [compound 500, 5-(2-{[4-(1H-imidazol-1-ylmethyl)phenyl]amino}pyrimidin-4-yl)-2-(tetrahydro-2H-pyran-4-yloxy)benzonitrile]	< 5 nM	< 10 nM	< 100 nM	2 nM	0.3 nM	91.8 nM
COCCNCc1ccc(Nc2nccc(-c3ccc(OCC(C)C)c(C#N)c3)n2)cc1 [compound 651]	< 5 nM	< 10 nM	< 100 nM	–	–	–
CNS(=O)(=O)Cc1ccc(Nc2nccc(-c3ccc(NC(=O)C(C)C)c(C#N)c3)n2)cc1 [compound 414, N-{2-cyano-4-[2-({4-[(methylsulfamoyl)methyl]phenyl}amino)pyrimidin-4-yl]phenyl}-2-methylpropanamide]	5 to 50 nM	10 to 100 nM	100 to 250 nM	–	–	–
CC(C)(C)CC(=O)Nc1ccc(-c2ccnc(Nc3ccc(N4CCOCC4)cc3)n2)cc1C#N [Example 202, N-[2-cyano-4-(2-{[4-(morpholin-4-yl)phenyl]amino}pyrimidin-4-yl)phenyl]-3,3-dimethylbutanamide]	5 to 50 nM	< 10 nM	100 to 250 nM	–	–	–
CS(=O)(=O)NCc1ccc(Nc2nccc(-c3ccc(OC4CCOCC4)c(C#N)c3)n2)cc1 [compound 493, N-[4-({4-[3-cyano-4-(tetrahydro-2H-pyran-4-yloxy)phenyl]pyrimidin-2-yl}amino)benzyl] methanesulfonamide]	< 5 nM	< 10 nM	< 100 nM	–	–	–
CN1CCN(C(=O)Nc2ccc(Nc3nccc(-c4ccc(OC5CCOCC5)c(C#N)c4)n3)cc2)CC1 [Example 20, N-[4-({4-[3-cyano-4-(tetrahydro-2H-pyran-4-yloxy)phenyl]pyrimidin-2-yl}amino)phenyl]-4-methylpiperazine-1-carboxamide]	< 5 nM	< 10 nM	250 to 500 nM	–	–	–

Continued, values first:

IC50 (IKKε; [2])	IC50 (TBK1; [3])	IC50 [1, 4]	IC50 (IKKε; Table 3, read-out: IKKε IC50)	IC50 (TBK1; Table 3, read-out: TBK1 IC50)	IC50 [1, 5]	SMILES
< 5 nM	< 10 nM	< 100 nM	–	–	–	COc1cc(Nc2nccc(-c3ccc(OC4CCOCC4)c(C#N)c3)n2)ccc1C(=O)N1CC(O)C1 [compound 485, 5-[2-({4-[(3-Hydroxyazetidinb-1-yl)carbonyl]-3-methoxyphenyl}amino)pyrimidin-4-yl]-2-(tetrahydro-2H-pyran-4-yloxy)benzonitrile]
< 5 nM	< 10 nM	< 100 nM	–	–	–	COc1cc(Nc2nccc(-c3ccc(OC4CCOCC4)c(C#N)c3)n2)ccc1S(=O)(=O)N(C)C1CCN(C)CC1 [Example 212]
< 5 nM	< 10 nM	< 100 nM	–	–	–	COc1cc(Nc2nccc(-c3ccc(OC4CCOCC4)c(C#N)c3)n2)ccc1OCCOCCN [Example 21, 5-[2-({4-[2-(2-aminoethoxy)ethoxy]-3-methoxyphenyl}amino)pyrimidin-4-yl]-2-(tetrahydro-2H-pyran-4-yloxy)benzonitrile]
< 5 nM	< 10 nM	< 100 nM	2 nM	0.4 nM	16.9 nM	N#Cc1cc(-c2ccnc(Nc3cccc(CN4CCN(CCO)CC4)c3)n2)ccc1OC1CCOCC1 [compound 625, 5-{2-[(3-{[4-(2-Hydroxyethyl)piperazin-1-yl]methyl}phenyl)amino]pyrimidin-4-yl}-2-(tetrahydro-2H-pyran-4-yloxy)benzonitrile]
< 5 nM	< 10 nM	< 100 nM	0.8 nM	0.4 nM	19.9 nM	COc1cc(Nc2nccc(-c3ccc(OC4CCOCC4)c(C#N)c3)n2)ccc1C(=O)N1CCCC1 [compound 613, 5-(2-{[3-Methoxy-4-(pyrrolidin-1-ylcarbonyl)phenyl]amino}pyrimidin-4-yl)-2-(tetrahydro-2H-pyran-4-yloxy)benzonitrile]
< 5 nM	< 10 nM	< 100 nM	–	–	–	COc1cc(Nc2nccc(-c3ccc(OC4CCOCC4)c(C#N)c3)n2)ccc1CN1CCN(C)CC1 [compound 479, 5-[2-({3-Methoxy-4-[(4-methylpiperazin-1-yl)methyl]phenyl}amino)pyrimidin-4-yl]-2-(tetrahydro-2H-pyran-4-yloxy)benzonitrile]
< 5 nM	< 10 nM	< 100 nM	–	–	–	COc1cc(Nc2nccc(-c3ccc(OC4CCOCC4)c(C#N)c3)n2)ccc1CN1CC(N2CCOCC2)C1 [compound 481, 5-{2-[(3-Methoxy-4-{[3-(morpholin-4-yl)azetidin-1-yl]methyl}phenyl)amino]pyrimidin-4-yl}-2-(tetrahydro-2H-pyran-4-yloxy)benzonitrile]
< 5 nM	< 10 nM	< 100 nM	–	–	–	COc1cc(Nc2nccc(-c3ccc(OC4CCOCC4)c(C#N)c3)n2)ccc1C(=O)N1CCN(CCO)CC1 [compound 476, 5-{2-[(4-{[4-(2-Hydroxyethyl)piperazin-1-yl]carbonyl}-3-methoxyphenyl)amino]pyrimidin-4-yl}-2-(tetrahydro-2H-pyran-4-yloxy)benzonitrile]
< 5 nM	< 10 nM	< 100 nM	–	–	–	N#Cc1cc(-c2ccnc(Nc3ccc(F)c(OCCN4CCNCC4)c3)n2)ccc1OC1CCOCC1 [compound 626, 5-[2-({4-Fluoro-3-[2-(piperazin-1-yl)ethoxy]phenyl}amino)pyrimidin-4-yl]-2-(tetrahydro-2H-pyran-4-yloxy)benzonitrile]
< 5 nM	< 10 nM	< 100 nM	–	–	–	COc1cc(Nc2nccc(-c3ccc(OC4CCOCC4)c(C#N)c3)n2)ccc1OCCCN1CCOCC1 [Example 31, 5-[2-({3-methoxy-4-[3-(morpholin-4-tl)propoxy]phenyl}amino)pyrimidin-4-yl]-2-(tetrahydro-2H-pyran-4-yloxy)benzonitrile]
< 5 nM	< 10 nM	< 100 nM	–	–	–	COc1cc(Nc2nccc(-c3ccc(OC4CCOCC4)c(C#N)c3)n2)ccc1C(=O)N1CCC(N2CCCC2)C1 (stereo not drawn) [compound 502, 5-(2-{[4-(1,3′-bipyrrolidin-1′-ylcarbonyl)-3-methoxyphenyl]amino}pyrimidin-4-yl)-2-(tetrahydro-2H-pyran-4-yloxy)benzonitrile]
